Experimental data published in patent US9267165B2, “Assays and kits for detecting protein binding” (DiscoveRx Corporation, priority 2002, dated 2016).
Where two headings read alike, the source gives them in different places.

Assays:
p38α [1] = biological target: T1, p38α (Homo sapiens, UniProt Q16539); experiment: Competition binding assay, phage-displayed kinase vs immobilized ATP-site ligand (SB202190); design: the coding region for p38α was cloned into the phage genome in-frame with the gene encoding the major T7 capsid protein; made in house; host or cells: T7 phage grown in E. coli (BLT 5615 in the illustrative protocol); lysate used directly
T1 sequence (Q16539 whole entry): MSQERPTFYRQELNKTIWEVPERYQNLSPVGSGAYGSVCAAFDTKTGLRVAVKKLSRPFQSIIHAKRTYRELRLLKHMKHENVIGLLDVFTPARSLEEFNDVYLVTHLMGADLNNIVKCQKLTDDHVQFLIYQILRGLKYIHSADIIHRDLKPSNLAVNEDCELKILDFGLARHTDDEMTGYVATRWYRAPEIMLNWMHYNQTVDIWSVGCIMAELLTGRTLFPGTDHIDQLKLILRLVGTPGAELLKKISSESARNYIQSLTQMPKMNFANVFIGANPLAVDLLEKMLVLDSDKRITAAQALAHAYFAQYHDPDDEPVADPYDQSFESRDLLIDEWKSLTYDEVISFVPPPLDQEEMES

JNK2 = JNK2 (Homo sapiens, UniProt P45984); conditions: IC50, Ki or Kd from the literature; cited from earlier work
JNK2, sequence (P45984 whole entry, species assumed): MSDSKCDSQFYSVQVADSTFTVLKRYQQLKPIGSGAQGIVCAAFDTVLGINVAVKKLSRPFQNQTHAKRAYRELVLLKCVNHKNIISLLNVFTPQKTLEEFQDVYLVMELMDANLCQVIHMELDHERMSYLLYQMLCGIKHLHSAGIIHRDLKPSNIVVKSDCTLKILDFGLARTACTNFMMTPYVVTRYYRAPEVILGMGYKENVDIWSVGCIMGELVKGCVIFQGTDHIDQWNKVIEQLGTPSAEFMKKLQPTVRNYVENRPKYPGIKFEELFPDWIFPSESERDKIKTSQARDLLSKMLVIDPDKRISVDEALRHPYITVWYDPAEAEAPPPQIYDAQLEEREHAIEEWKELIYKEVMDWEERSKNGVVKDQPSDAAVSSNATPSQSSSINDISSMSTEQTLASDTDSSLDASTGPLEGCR

p38α [2] = biological target: T1, p38α; conditions: IC50, Ki or Kd from the literature; cited from earlier work
EGFR = EGFR (Homo sapiens, UniProt P00533); conditions: IC50, Ki or Kd from the literature; cited from earlier work
EGFR, sequence (P00533 25-1210, species assumed): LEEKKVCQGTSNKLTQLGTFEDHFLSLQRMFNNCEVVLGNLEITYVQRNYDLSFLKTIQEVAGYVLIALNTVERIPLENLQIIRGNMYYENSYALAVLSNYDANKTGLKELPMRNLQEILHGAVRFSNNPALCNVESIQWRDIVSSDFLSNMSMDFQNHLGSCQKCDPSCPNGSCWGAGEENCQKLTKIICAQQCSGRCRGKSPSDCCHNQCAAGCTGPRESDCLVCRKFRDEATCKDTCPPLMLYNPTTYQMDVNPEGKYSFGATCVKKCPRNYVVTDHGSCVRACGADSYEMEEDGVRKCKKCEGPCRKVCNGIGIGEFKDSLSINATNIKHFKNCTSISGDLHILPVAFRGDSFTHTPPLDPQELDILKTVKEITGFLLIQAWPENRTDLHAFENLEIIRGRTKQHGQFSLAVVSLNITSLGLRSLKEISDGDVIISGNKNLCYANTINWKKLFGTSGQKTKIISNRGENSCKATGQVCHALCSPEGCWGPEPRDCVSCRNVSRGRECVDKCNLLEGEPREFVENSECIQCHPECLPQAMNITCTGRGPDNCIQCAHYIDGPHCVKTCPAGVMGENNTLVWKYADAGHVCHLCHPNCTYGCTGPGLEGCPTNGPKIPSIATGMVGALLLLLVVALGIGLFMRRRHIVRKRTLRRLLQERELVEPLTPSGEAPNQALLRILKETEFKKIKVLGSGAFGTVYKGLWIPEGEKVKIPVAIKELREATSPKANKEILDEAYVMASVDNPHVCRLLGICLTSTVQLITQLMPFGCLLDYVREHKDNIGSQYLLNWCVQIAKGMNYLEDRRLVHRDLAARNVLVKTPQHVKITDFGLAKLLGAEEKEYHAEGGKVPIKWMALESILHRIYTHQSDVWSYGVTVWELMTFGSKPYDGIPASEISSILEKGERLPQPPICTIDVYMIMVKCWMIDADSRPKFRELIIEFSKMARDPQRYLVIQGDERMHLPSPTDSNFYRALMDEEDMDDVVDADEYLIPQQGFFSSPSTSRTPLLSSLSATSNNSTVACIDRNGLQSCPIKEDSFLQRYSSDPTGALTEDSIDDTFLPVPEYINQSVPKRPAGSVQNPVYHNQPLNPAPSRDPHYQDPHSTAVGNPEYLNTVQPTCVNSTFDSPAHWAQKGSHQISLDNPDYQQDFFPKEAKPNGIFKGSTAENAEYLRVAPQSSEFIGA

ERBB2 = ERBB2 (Homo sapiens, UniProt P04626); conditions: IC50, Ki or Kd from the literature; cited from earlier work
ERBB2, sequence (P04626 23-1255, species assumed): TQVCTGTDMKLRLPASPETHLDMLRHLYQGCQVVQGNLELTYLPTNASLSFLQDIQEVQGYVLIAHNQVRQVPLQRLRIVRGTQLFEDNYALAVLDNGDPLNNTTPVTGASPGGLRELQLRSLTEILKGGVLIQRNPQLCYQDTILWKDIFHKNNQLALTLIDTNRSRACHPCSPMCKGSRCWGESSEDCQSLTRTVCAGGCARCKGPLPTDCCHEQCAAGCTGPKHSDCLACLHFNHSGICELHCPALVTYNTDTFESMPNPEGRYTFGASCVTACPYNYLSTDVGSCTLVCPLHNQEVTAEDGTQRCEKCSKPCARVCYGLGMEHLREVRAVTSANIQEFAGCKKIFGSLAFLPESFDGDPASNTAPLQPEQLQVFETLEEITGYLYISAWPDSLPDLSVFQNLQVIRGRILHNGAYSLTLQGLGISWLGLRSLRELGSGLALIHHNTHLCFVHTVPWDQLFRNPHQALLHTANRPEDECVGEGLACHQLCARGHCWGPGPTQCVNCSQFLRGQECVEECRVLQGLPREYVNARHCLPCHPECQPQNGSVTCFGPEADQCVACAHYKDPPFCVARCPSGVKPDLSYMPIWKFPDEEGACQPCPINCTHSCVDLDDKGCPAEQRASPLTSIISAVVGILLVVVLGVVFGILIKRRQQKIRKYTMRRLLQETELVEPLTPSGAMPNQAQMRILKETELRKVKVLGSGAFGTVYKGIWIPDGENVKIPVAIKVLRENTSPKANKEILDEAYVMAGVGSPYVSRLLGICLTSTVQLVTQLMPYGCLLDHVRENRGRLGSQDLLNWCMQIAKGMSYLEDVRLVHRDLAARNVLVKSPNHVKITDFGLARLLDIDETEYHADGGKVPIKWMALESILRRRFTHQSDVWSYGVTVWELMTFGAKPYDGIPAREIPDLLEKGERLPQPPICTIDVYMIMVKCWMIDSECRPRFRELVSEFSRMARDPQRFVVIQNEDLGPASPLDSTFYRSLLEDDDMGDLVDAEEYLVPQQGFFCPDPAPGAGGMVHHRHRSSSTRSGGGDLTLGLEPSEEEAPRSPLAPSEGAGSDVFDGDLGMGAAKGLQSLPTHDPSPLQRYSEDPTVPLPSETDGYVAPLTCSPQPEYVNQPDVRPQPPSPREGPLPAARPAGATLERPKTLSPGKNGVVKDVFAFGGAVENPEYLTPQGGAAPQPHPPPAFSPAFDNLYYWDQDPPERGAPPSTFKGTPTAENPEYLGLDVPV

With `CCc1nc(-c2ccc(OC)cc2)[nH]c1-c1ccncc1` [SB202474] the “decrease of the amount of phage-displayed p38 bound to the solid support” value (p38α [1]) was “neither SB202474 nor purvalanol A had a significant effect”.

In the case of `O=C1c2ccccc2-c2n[nH]c3cccc1c23` [CC-401], the Published (JNK2) is given as 110 (Z. Han et al., J. Clin. Invest. 108, 73 (2001)) nM.

In the case of `Oc1ccc(-c2nc(-c3ccncc3)c(-c3ccc(F)cc3)[nH]2)cc1` [SB202190], the “binding (association) kinetics” value (p38α [1]; p38, known and also observed in the competition assays) is given as “fast” and the Published (p38α [2]) is given as 37 (B. Frantz et at., Biochemistry 37, 13846 (1998)). nM.

For `CC(C)[C@H](CO)Nc1nc(Nc2cccc(Cl)c2)c2ncn(C(C)C)c2n1` [purvalanol A], the “decrease of the amount of phage-displayed p38 bound to the solid support” value (p38α [1]; competition with immobilized SB202190, FIG. 1B) was “neither SB202474 nor purvalanol A had a significant effect”.

For `CS(=O)(=O)CCNCc1ccc(-c2ccc3c(Nc4ccc(OCc5cccc(F)c5)c(Cl)c4)ncnc3c2)o1` [GW-2016], the Published (EGFR) is listed as 11 (D. W. Rusnak et al., Mol. Cancer Ther. 1, 85 (2001)) nM and the Published (ERBB2) is listed as 9.2 (D. W. Rusnak et al., Mol. Cancer Ther. 1, 85 (2001)) nM.
